Patent publication US20110092548A1, “METHOD FOR TREATING/PREVENTING DISEASE USING COGNITIVE ABILITY OF CEREBRUM AND PHARMACEUTICAL” (priority 2006, published 2011)

Assays:
[1] = cited from earlier work
[2] = system: large intestine cancer patients; assay: Treatment of large intestine cancer patients (Example 2); type: in vivo, human; conditions: Table 2
Description: Next, treatment of 11 large intestine cancer patients is described.
In principle, the same as Example 1.
The following is course of treatment of the large intestine cancer patients.

O=C1O[C@H]([C@@H](O)CO)C(O)=C1O [vitamin C, ascorbic acid]
stability to heat ([1]; heat): weak to heat | oxidation reduction potential ([1]; pH 7.0): +0.058 V | Alive or dead [2]: Alive
